The target of this assay is T1, CLas GMPS (guanosine 5′-monophosphate synthetase).
T1 construct: gene guaA
It counts as biochemical, Candidatus Liberibacter asiaticus.

Turning to `Nc1nc(=O)c2nc(CNc3ccc(C(=O)N[C@@H](CCC(=O)O)C(=O)O)cc3)cnc2[nH]1` [Compound5481, folic acid], the Ki (usually a measure of affinity in units of concentration, obtained from inhibition or displacement) turned out to be 52 µM. The compound `CCN(CCCOc1ccc2c(Nc3cc(CC(=O)Nc4cccc(F)c4)n[nH]3)ncnc2c1)CCOP(=O)(O)O` [Compound1334, AZD1152] showed a Ki of 4.05 µM.

Source of the values: article PMC8301025 (Biology, 2021).
